Source: ChEMBL document CHEMBL5150003, “Why All the Fury over Furin?” (J Med Chem, 2022)
Numbered stars: 1 amine (or outer) side, 2 acyl side, 3 side chain; on linkers, the order of the positions; unused ones are H or OH. Square brackets hold non-standard residues; d marks the D form. Peptide text beside a SMILES is read from it. * marks the point of attachment. X2 = CC(C(=O)[*:2])n1cc(C(CCCNC(=N)N)N[*:1])nn1; NH(4-amidinobenzyl) = N=C(N)c1ccc(CN*)cc1; PhAc = O=C(Cc1ccccc1)*

How the values were obtained:
[1] = test system: Mus musculus; experiment: Antifibrotic activity against bleomycin-induced mouse lung fibrosis model assessed as inhibition of TGF-beta secretion in lung at 10 mg/kg, ip administered twice daily; type: functional
[2] = target: T1, Furin (Homo sapiens, UniProt P09958); experiment: Inhibition of furin in human U2OS cells measured after 24 hrs by fluorescence assay; type: cell-based
T1 sequence (P09958 whole entry): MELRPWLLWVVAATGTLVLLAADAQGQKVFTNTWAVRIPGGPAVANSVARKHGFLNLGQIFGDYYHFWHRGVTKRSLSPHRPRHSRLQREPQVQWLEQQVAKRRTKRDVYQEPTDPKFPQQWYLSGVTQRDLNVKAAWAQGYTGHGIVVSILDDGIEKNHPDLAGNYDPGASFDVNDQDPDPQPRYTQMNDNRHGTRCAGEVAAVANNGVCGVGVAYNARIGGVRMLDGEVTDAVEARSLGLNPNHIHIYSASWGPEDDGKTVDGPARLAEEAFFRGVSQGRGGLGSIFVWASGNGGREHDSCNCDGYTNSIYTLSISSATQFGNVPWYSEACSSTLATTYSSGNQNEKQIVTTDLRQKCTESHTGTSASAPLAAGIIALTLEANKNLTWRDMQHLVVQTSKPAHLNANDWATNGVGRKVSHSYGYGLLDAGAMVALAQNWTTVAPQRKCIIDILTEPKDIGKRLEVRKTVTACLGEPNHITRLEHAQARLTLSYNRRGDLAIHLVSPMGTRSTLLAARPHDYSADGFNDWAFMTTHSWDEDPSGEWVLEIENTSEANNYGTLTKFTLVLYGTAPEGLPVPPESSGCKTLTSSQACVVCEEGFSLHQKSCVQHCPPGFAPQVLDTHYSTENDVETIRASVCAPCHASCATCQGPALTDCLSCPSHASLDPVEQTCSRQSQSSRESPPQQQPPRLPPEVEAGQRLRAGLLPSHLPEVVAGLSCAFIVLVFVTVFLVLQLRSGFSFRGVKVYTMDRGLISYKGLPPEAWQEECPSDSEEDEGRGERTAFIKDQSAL

[3] = test system: Mus musculus; experiment: Antifibrotic activity against bleomycin-induced mouse lung fibrosis model assessed as inhibition of hydroxyproline content in lung at 10 mg/kg, ip administered twice daily; type: functional
[4] = target: T1, Furin; experiment: Inhibition of human furin using Pyr-RTKR-AMC as substrate preincubated for 30 mins followed by substrate addition and measured by fluorescence based assay
[5] = Stability in mouse plasma assessed as half-life; type: ADME, cell-free
[6] = target: T1, Furin; experiment: Inhibition of furin (unknown origin)
[7] = Stability in mouse plasma assessed as compound remaining measured after 24 hrs; type: ADME, cell-free; settings: read-out: Stability
[8] = test system: Mus musculus; experiment: Antifibrotic activity against bleomycin-induced mouse lung fibrosis model assessed as inhibition of TGF-beta secretion in lung at 30 mg/kg, po administered once daily; type: functional
[9] = test system: Mus musculus; experiment: Antifibrotic activity against bleomycin-induced mouse lung fibrosis model assessed as inhibition of hydroxyproline content in lung at 30 mg/kg, po administered once daily; type: functional
[10] = target: T1, Furin; experiment: Inhibition of human furin expressed in HEK293 cells using pGlu-Arg-Thr-LysArg-AMC as substrate and measured by fluorescence based assay
[11] = target: T1, Furin; experiment: Inhibition of recombinant human furin using Phac-Arg-Val-Arg-Arg-AMC as substrate incubated for 30 mins and measured by microplate reader method
[12] = Dissociation constant, pKa of the compound; type: physicochemical
[13] = Inhibition of porcine trypsin using Mes-DArg-Gly-Arg-AMC as substrate and measured by fluorescence assay; set-up: species or system Sus scrofa
[14] = target: T1, Furin; experiment: Inhibition of recombinant human furin protease
[15] = test system: Vero; experiment: Protective activity against Escherichia coli O157:H7 Shiga toxin-induced cytotoxicity in monkey Vero cells measured by LDH assay; type: functional, cell-based; settings: Chlorocebus sabaeus
[16] = test system: Mus musculus; experiment: Antifibrotic activity against bleomycin-induced mouse lung fibrosis model assessed as inhibition of hydroxyproline content in lung at 10 mg/kg, ip administered once daily; type: functional
[17] = test system: Mus musculus; experiment: Antifibrotic activity against bleomycin-induced mouse lung fibrosis model assessed as inhibition of TGF-beta secretion in lung at 10 mg/kg, ip administered once daily; type: functional
[18] = target: T1, Furin; experiment: Inhibition of soluble recombinant human furin using pyroGlu-Arg-Thr-Lys-Arg-AMC as substrate and measured by fluorescence assay

SMILES: CC(=O)NCC1CCN(Cc2cc(Oc3ccc(N4CCN(CC(=O)O)CC4)nc3)nc(-c3cc(Cl)cc(Cl)c3)c2)CC1
- inhibition in vivo at 10 mg/kg [1]: 43%
- pXC50 [2]: 6.9
- inhibition in vivo at 10 mg/kg [3]: 16%

SMILES: CC(=O)N[C@@H](CCCNC(=N)N)C(=O)N[C@H](C(=O)N[C@@H](Cc1ccc(N=C(N)N)cc1)C(=O)NCc1ccc(C(=N)N)c(F)c1)C(C)C
- Ki [4]: 0.0037 µM

SMILES: CC(=O)NCC1CCN(Cc2cc(Oc3cnc(N4CCN(CCC(=O)O)CC4)nc3)nc(-c3cc(Cl)cc(Cl)c3)c2)CC1
- inhibition in vivo at 10 mg/kg [1]: 86%
- pXC50 [2]: 8
- inhibition in vivo at 10 mg/kg [3]: 60%

SMILES: CC(C(=O)N[C@@H](C)C(=O)N[C@@H](CCCNC(=N)N)C(=O)N[C@@H](CCCNC(=N)N)C(=O)N[C@@H](CCCNC(=N)N)C(=O)N[C@@H](CCCCN)C(=O)N[C@@H](CCCCN)C(=O)N[C@@H](CCCNC(=N)N)C(=O)N[C@H](C(N)=O)[C@@H](C)O)n1cc(C(CCCNC(=N)N)NC(=O)[C@@H](N)CCCNC(=N)N)nn1 (stereo not given in full) (H-R[X2]ARRRKKRT-NH2)
- half-life [5]: 1.24 h
- Ki [6]: 0.013 µM
- remaining at 24 h [7]: 20%

SMILES: CC(=O)NCC1CCN(Cc2cc(Oc3ccc(N4CCN(CCS(C)(=O)=O)CC4)nc3)nc(-c3cc(Cl)cc(Cl)c3)c2)CC1
- inhibition in vivo at 30 mg/kg [8]: 41%
- inhibition in vivo at 30 mg/kg [9]: 45%
- pXC50 [2]: 7.6

SMILES: CC(C)[C@H](NC(=O)[C@H](CCCNC(=N)N)NC(=O)Cc1ccc(CNC(=N)N)cc1)C(=O)N[C@@H](CCCNC(=N)N)C(=O)NCc1ccc(C(=N)N)cc1
- Ki [10]: 7.6 pM

SMILES: CC(C)[C@H](NC(=O)CCCCNC(=N)N)C(=O)N[C@@H](CCCNC(=N)N)C(=O)NCc1ccc(C(=N)N)cc1
- Ki [11]: 2.5 nM

SMILES: O=C(O)CC1CCN(Cc2cc(Oc3cnc(N4CCN5CCC4C5)nc3)nc(-c3cc(Cl)cc(Cl)c3)c2)CC1 (stereo not given)
- inhibition in vivo at 30 mg/kg [8]: 36%
- inhibition in vivo at 30 mg/kg [9]: 34%
- pXC50 [2]: 7.7

SMILES: CC(=O)N[C@@H](CCCNC(=N)N)C(=O)N[C@H](C(=O)N[C@@H](Cc1ccc(N=C(N)N)cc1)C(=O)NCc1ccc(C(=N)N)cc1)C(C)C
- Ki [4]: 0.007 µM

SMILES: CC(C)(C)[C@H](NC(=O)[C@H](CCCNC(=N)N)NC(=O)Cc1ccc(CNC(=N)N)cc1)C(=O)N[C@@H](CCCNC(=N)N)C(=O)NCc1ccc(N)nc1
- pKa [12]: 6.5
- IC50 [6]: 0.00298 µM
- Ki [6]: 0.0008 µM

SMILES: CC(C)[C@H](NS(=O)(=O)Cc1ccc(C(=N)N)cc1)C(=O)N[C@@H](CCCNC(=N)N)C(=O)NCc1ccc(C(=N)N)cc1
- Ki [4]: 0.3 µM

SMILES: CC(C)(C)[C@H](NC(=O)[C@H](CCCNC(=N)N)NC(=O)Cc1ccc(CNC(=N)N)cc1)C(=O)N[C@@H](CCCNC(=N)N)C(=O)NCc1ccc(C(=N)N)cc1
- Ki [13]: 0.052 µM

SMILES: CC(C)[C@H](NC(=O)[C@H](CCCNC(=N)N)NC(=O)[C@H](CCCNC(=N)N)NC(=O)[C@H](CCCNC(=N)N)NC(=O)Cc1ccccc1)C(=O)N[C@@H](CCCNC(=N)N)C(=O)NCc1ccc(C(=N)N)cc1 (PhAc-RRRVR-{NH(4-amidinobenzyl)})
- Ki [11]: 0.0138 nM

SMILES: CC(=O)N[C@@H](CCCNC(=N)N)C(=O)N[C@@H](C)C(=O)N[C@@H](CCCNC(=N)N)C(=O)N[C@@H](CCCNC(=N)N)C(=O)N[C@@H](CCCNC(=N)N)C(=O)N[C@@H](CCCCN)C(=O)N[C@@H](CCCCN)C(=O)N[C@@H](CCCNC(=N)N)C(=O)N[C@H](C(N)=O)[C@@H](C)O
- half-life [5]: 1.7 h
- Ki [6]: 0.019 µM
- remaining at 24 h [7]: 5%
- Ki [14]: 0.019 µM
- IC50 [15]: > 1000 µM

SMILES: CC(=O)NCC1CCN(Cc2cc(Oc3ccc(N4CCN(CCO)CC4)nc3)nc(-c3cc(Cl)cc(Cl)c3)c2)CC1
- pXC50 [2]: 8.5
- inhibition in vivo at 10 mg/kg [16]: 56%
- inhibition in vivo at 10 mg/kg [17]: 60%

SMILES: CC(=O)N[C@@H](CCCNC(=N)N)C(=O)NN(CCCNC(=N)N)CC(=O)N[C@@H](C)C(=O)N[C@@H](CCCNC(=N)N)C(=O)N[C@@H](CCCNC(=N)N)C(=O)N[C@@H](CCCNC(=N)N)C(=O)N[C@@H](CCCCN)C(=O)N[C@@H](CCCCN)C(=O)N[C@@H](CCCNC(=N)N)C(=O)N[C@H](C(N)=O)[C@@H](C)O
- half-life [5]: 1.04 h
- Ki [6]: 0.012 µM
- remaining at 24 h [7]: 29%
- IC50 [15]: > 1000 µM

SMILES: N=C(N)N/N=C/c1ccc(N2CCN(c3ccc(/C=N/NC(=N)N)cc3)CC2)cc1
- Ki [18]: 1.54 µM

SMILES: C/C(=N\NC(=N)N)c1ccc(OCCCOc2ccc(/C(C)=N/NC(=N)N)cc2)cc1
- Ki [18]: 1.43 µM

SMILES: CN1CCCN(c2cnc(Oc3cc(CN4CCC(CC(=O)O)CC4)cc(-c4cc(Cl)cc(Cl)c4)n3)cn2)CC1
- inhibition in vivo at 30 mg/kg [8]: 26%
- inhibition in vivo at 30 mg/kg [9]: 21%
- pXC50 [2]: 7.7

SMILES: CC(=O)N[C@@H](CCCNC(=N)N)C(=O)N[C@@H](C)C(=O)N[C@@H](CCCNC(=N)N)C(=O)N[C@@H](CCCNC(=N)N)C(=O)N[C@@H](CCCNC(=N)N)C(=O)N[C@@H](CCCCN)C(=O)N[C@@H](CCCCN)C(=O)NCc1ccc(C(=N)N)cc1 (Ac-RARRRKK-{NH(4-amidinobenzyl)})
- half-life [5]: 9.1 h
- Ki [6]: 0.0038 µM
- IC50 [15]: > 1000 µM
